Tested on: 292921-168-R tumor spheroid viability
Test: Anticancer human tumor 292921-168-R patient-derived pancreatic carcinoma cell line growth inhibition
Conditions: spheroids with HUVEC and MSC; for IC50: curve of first compound; for viability, T/C: stronger effect = lower value
Method in brief: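 Complex tumor spheroids combined malignant cells with endothelial cells and mesenchymal stem cells. DNA-damaging drugs and DNA repair inhibitors were tested alone and in combination, at half-log dilutions down from clinical Cmax (top 10 microM if Cmax unknown), 0.25% DMSO final.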

[1] = second compound 1 µM, first compound 0.00949 µM
[2] = second compound 1 µM, first compound 0.03 µM
[3] = second compound 1 µM, first compound 0.0949 µM
[4] = second compound 1 µM, first compound 0.3 µM
[5] = second compound 1 µM, first compound 0.949 µM
[6] = second compound 1 µM, first compound 3 µM
[7] = second compound 3.16 µM, first compound 0.00949 µM
[8] = second compound 3.16 µM, first compound 0.03 µM
[9] = second compound 3.16 µM, first compound 0.0949 µM
[10] = second compound 3.16 µM, first compound 0.3 µM
[11] = second compound 3.16 µM, first compound 0.949 µM
[12] = second compound 3.16 µM, first compound 3 µM
[13] = second compound 10 µM, first compound 0.00949 µM
[14] = second compound 10 µM, first compound 0.03 µM
[15] = second compound 10 µM, first compound 0.0949 µM
[16] = second compound 10 µM, first compound 0.3 µM
[17] = second compound 10 µM, first compound 0.949 µM
[18] = second compound 10 µM, first compound 3 µM
[19] = second compound 31.6 µM, first compound 0.00949 µM
[20] = second compound 31.6 µM, first compound 0.03 µM
[21] = second compound 31.6 µM, first compound 0.0949 µM
[22] = second compound 31.6 µM, first compound 0.3 µM
[23] = second compound 31.6 µM, first compound 0.949 µM
[24] = second compound 31.6 µM, first compound 3 µM
[25] = second compound 100 µM, first compound 0.00949 µM
[26] = second compound 100 µM, first compound 0.03 µM
[27] = second compound 100 µM, first compound 0.0949 µM
[28] = second compound 100 µM, first compound 0.3 µM
[29] = second compound 100 µM, first compound 0.949 µM
[30] = second compound 100 µM, first compound 3 µM
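Further: spheroids exposed to compounds for 7 days.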

Row | Structure (SMILES) | IC50 (second compound 1 µM) | IC50 (second compound 3.16 µM) | IC50 (second compound 10 µM) | IC50 (second compound 31.6 µM) | IC50 (second compound 100 µM) | viability, T/C [3] | viability, T/C [4] | viability, T/C [5] | viability, T/C [6] | viability, T/C [9] | viability, T/C [10] | viability, T/C [11] | viability, T/C [12] | viability, T/C [15] | viability, T/C [16] | viability, T/C [17] | viability, T/C [18] | viability, T/C [21] | viability, T/C [22] | viability, T/C [23] | other results
1 | CNCc1ccc(-c2cc(-c3nc(-c4ccc(S(=O)(=O)C(C)C)cc4)cnc3N)on2)cc1 + Cn1nnc2c(C(N)=O)ncn2c1=O | 205 nM | 212 nM | 214 nM | 178 nM | 136 nM | 70.7% | 37.7% | 23.1% | 9.35% | 67.9% | 41.9% | 22% | 12% | 71.7% | 40.2% | 20.4% | 9.2% | 72.2% | 31.6% | 17.2% | viability, T/C [1]: 90%; viability, T/C [2]: 85.7%; viability, T/C [7]: 97.1%; viability, T/C [8]: 92.8%; viability, T/C [13]: 96.4%; viability, T/C [14]: 88.6%; viability, T/C [19]: 91.6%; viability, T/C [20]: 79.2%; viability, T/C [24]: 8.61%; viability, T/C [25]: 81.9%; viability, T/C [26]: 82.3%; viability, T/C [27]: 61.5%; viability, T/C [28]: 23.9%; viability, T/C [29]: 13.1%; viability, T/C [30]: 7.83%
2 | Cn1ncnc1[C@H]1c2n[nH]c(=O)c3cc(F)cc(c23)N[C@@H]1c1ccc(F)cc1 + Cn1nnc2c(C(N)=O)ncn2c1=O | 393 nM | 439 nM | 143 nM | 19 nM | < 9.49 nM | 73.8% | 58.8% | 27.7% | 9.76% | 73% | 59.5% | 32% | 11.1% | 55.8% | 39.2% | 23.3% | 9.97% | 31.9% | 24% | 15.8% | viability, T/C [1]: 88.4%; viability, T/C [2]: 81.3%; viability, T/C [7]: 81.1%; viability, T/C [8]: 82%; viability, T/C [13]: 75.1%; viability, T/C [14]: 68.1%; viability, T/C [19]: 58.4%; viability, T/C [20]: 44.4%; viability, T/C [24]: 8.83%; viability, T/C [25]: 24.2%; viability, T/C [26]: 19.3%; viability, T/C [27]: 17.4%; viability, T/C [28]: 14.6%; viability, T/C [29]: 11.7%; viability, T/C [30]: 7.45%
3 | O=C(c1cc(Cc2n[nH]c(=O)c3ccccc23)ccc1F)N1CCN(C(=O)C2CC2)CC1 + Cn1nnc2c(C(N)=O)ncn2c1=O | 12900 nM | 17700 nM | 8800 nM | 4050 nM | 573 nM | 89.2% | 93.1% | 87% | 86.1% | 100% | 101% | 94% | 93.6% | 94.7% | 92.4% | 96.5% | 82.2% | 88% | 86.6% | 76% | viability, T/C (second compound 1 µM, first compound 9.49 µM): 55.6%; viability, T/C (second compound 1 µM, first compound 30 µM): 34.2%; viability, T/C (second compound 3.16 µM, first compound 9.49 µM): 63.4%; viability, T/C (second compound 3.16 µM, first compound 30 µM): 38.5%; viability, T/C (second compound 10 µM, first compound 9.49 µM): 48%; viability, T/C (second compound 10 µM, first compound 30 µM): 28.3%; viability, T/C [24]: 56.8%; viability, T/C (second compound 31.6 µM, first compound 9.49 µM): 32.2%; viability, T/C (second compound 31.6 µM, first compound 30 µM): 21.4%; viability, T/C [27]: 74.6%; viability, T/C [28]: 58.2%; viability, T/C [29]: 44%; viability, T/C [30]: 29%; viability, T/C (second compound 100 µM, first compound 9.49 µM): 19.1%; viability, T/C (second compound 100 µM, first compound 30 µM): 17.2%

Reference: PubChem BioAssay AID1845196 (Molecular Pharmacology Branch, DTP, NCI, 2023)
